Results reported in patent US20240390372A1, “METHODS OF TREATING HAIR-LOSS DISORDERS WITH TYK2 INHIBITORS” (Bristol-Myers Squibb Company, priority 2021, published 2024).

Key:
[1] = system: microdissected hair follicles from human scalp; assay: Prophylactic assay: pre-treatment before IL-12+IL-18, MHC class I and II levels; format: cell-based
Protocol: To address the role of IL-12 in AA pathobiology and its potential as a therapeutic target, microdissected hair follicles from human scalp were cultured in the presence of IL-12 (3 ng/mL) and IL-18 (20 ng/mL) and in the presence or absence of a selective allosteric TYK2 inhibitor, the compound of Formula (II) (300 nM). IFNγ (75 UI/mL) was used as a positive control to induce immune privilege (IP) collapse, and tofacitinib was used as a positive control for blocking IFNγ signaling. Hair follicle immune privilege (HF-IP) was assessed by quantitative immunohistomorphometry of MHC class I, of MHC class II, and of MHC class chain-related protein A and MHC class chain-related protein B (MICA/B).
Hair follicles were pre-treated with the compound having the structure of Formula (II) (denoted “BMS” in the figures), followed by the addition of IL-12 and IL-18, in a prophylactic assay. Tofacitinib was used as a control, for comparison. For this assay, each group included 19-40 hair follicles, obtained from 3-5 independent healthy donors. The groups were treated as follows: with vehicle, with the compound of Formula (II) (300 nM), or with tofacitinib (400 nM) for 5-6 days; on day 2 of culture, vehicle, or IL-12 (3 ng/ml) and IL-18 (20 ng/mL) were added. Levels of MHC class I and of MHC class II were assessed as described above, and FIGS. 17-22 provide the results. The graphs in FIGS. 17-20 show mean±SEM and results of the Dunn's multiple comparison test (*p<0.05; **p<0.01; ****p<0.0001). FIGS. 21 and 22 show staining of MHC-I and MHC-II, respectively, in hair follicles (scale bar=100 μm).

[2] = system: microdissected hair follicles from human scalp; assay: Therapeutic assay: compound added after IL-12+IL-18, T cell and NK cell expansion (CD3/CD56 immunostaining); format: cell-based; conditions: 300 nM added on day 2 of IL-12+IL-18 culture
Protocol: To assess whether TYK2 inhibition can block ongoing T cell and NK cell expansion, hair follicles were first incubated with vehicle, or with IL-12+IL-18, followed by the addition of the compound of Formula (II) or of tofacitinib. Specifically, 24-33 hair follicles, obtained from 3-4 independent healthy donors, were treated with vehicle, or with IL-12 (3 ng/ml) and IL-18 (20 ng/ml), for 5-6 days. On day 2 of culture, the compound of Formula (II) (300 nM) or tofacitinib (400 nM) was added. T cell expansion and NK cell expansion were assessed by immunostaining for CD3 (T cells) or CD56 (NK cells). The graphs in FIGS. 34-37 show mean±SEM, with p-values from the Dunn's multiple comparison test (*p<0.05; **p<0.01; ***p<0.001; ****p<0.0001). FIG. 38 provides images of staining for CD3 and CD56 in hair follicles (scale bar=50 μm).

[3] = system: microdissected hair follicles from human scalp; assay: Therapeutic assay: compound added after IL-12+IL-18-induced immune privilege collapse, MHC class I and II expression; format: cell-based
Description: The above assays were adapted to investigate whether TYK2 inhibition can inhibit ongoing IL-12+IL-18-mediated hair follicle immune privilege collapse, and thus whether TYK2 inhibition is a viable therapeutic strategy for treating alopecia areata. In these assays, immune privilege collapse was first induced by treatment with IL-12+IL-18, followed by the addition of the compound of Formula (II).
To assess whether TYK2 inhibition could restore hair follicle immune privilege, 21-31 hair follicles, obtained from 3-4 independent healthy donors, were cultured with vehicle, or with IL-12 (3 ng/mL) and IL-18 (20 ng/ml), for 5-6 days. On day 2 of culture, the compound of Formula (II) (300 nM) or tofacitinib (400 nM) was added until day 5-6. MHC class I expression and MHC class II expression were measured, as was done previously. The graphs in FIGS. 28-31 show mean±SEM, with p-values from the Dunn's multiple comparison test (*p<0.05; **p<0.01; ***p<0.001; ****p<0.0001). FIGS. 32 and 33 show staining of MHC-I and MHC-II, respectively, in hair follicles (scale bar=100 μm). […] As discussed above, MHC class I and II are markers of immune privilege collapse.

[4] = system: ex vivo cultured hair follicles; assay: IFNγ secretion into the medium of ex vivo cultured hair follicles treated with IL-12+IL-18 (ELISA; prophylactic and therapeutic assays); format: cell-based, human; conditions: for IFNγ release into the culture medium: hair follicles treated with IL-12+IL-18, assay format not given
Protocol: (§1) Resident immune cell populations were assessed by quantification of CD3-positive cells and of CD56-positive cells. Gene expression of treated hair follicles was assessed using whole transcriptome analysis. IFNγ production was quantified by enzyme-linked immunosorbent assay (R&D systems). IL-12RB2-expressing cells were evaluated in healthy donors, acute AA patients, and chronic AA patients using immunohistomorphometry.
The effect of TYK2 inhibition on IFNγ production by hair follicles was also assessed. Specifically, two assays were performed to examine how TYK2 inhibition affects IFNγ secretion into the medium of ex vivo cultured hair follicles treated with IL-12+IL-18. In the prophylactic assay, hair follicles were pre-treated with the compound of Formula (II) or with tofacitinib, and then were cultured in the presence of IL-12+IL-18, after which IFNγ in the culture medium was measured. In the therapeutic assay, hair follicles were initially treated with IL-12±IL-18; then the compound of Formula (II) or tofacitinib was added and the culture continued, after which IFNγ in the culture medium was measured. The data in FIGS. 39 and 40 are based on the amount of IFNγ measured in pooled culture medium from n=8 hair follicles per group, obtained from 1-2 healthy donors. The graphs show mean±SEM from technical duplicates.

[5] = system: microdissected hair follicles from human scalp; assay: Prophylactic assay: pre-treatment before IL-12+IL-18, CD3+ T cell and CD56+ NK cell quantification; format: cell-based; conditions: pre-treatment 300 nM, 5-6 days; IL-12+IL-18 added on day 2
Protocol: as §1
The effect of pre-treatment with the compound of Formula (II) on T cell and NK cell expansion following IL-12 and IL-18 stimulation was also examined. 22-40 hair follicles, obtained from 4-5 independent healthy donors, were incubated with vehicle, with the compound of Formula (II) (300 nM), or with tofacitinib (400 nM) for 5-6 days. On day 2 of culture, vehicle, or IL-12 (3 ng/ml) and IL-18 (20 ng/mL) were added. Resident immune cell populations were assessed by quantification of CD3-positive cells and of CD56-positive cells. FIGS. 23-27 provide the results. The graphs in FIGS. 23-26 show mean±SEM and results of the Dunn's multiple comparison test (*p<0.05; ***p<0.001). […] Pre-treatment with the compound of Formula (II) prevented an elevation of CD3+ T cell frequency and of CD56+ NK cell frequency, consistent with the results above.

[6] = 300 nM for 5-6 days, IL-12 3 ng/mL and IL-18 20 ng/mL added on day 2
[7] = 300 nM added on day 2 until day 5-6 of IL-12+IL-18 culture
[8] = 400 nM added on day 2 until day 5-6 of IL-12+IL-18 culture

SMILES	IL-12+IL-18-mediated upregulation of MHC class I in the outer root sheath [1, 6]	IL-12+IL-18-mediated upregulation of MHC class II in the outer root sheath [1, 6]	effect on MHC class I and II upregulation compared with tofacitinib ([1]; compound 300 nM versus tofacitinib 400 nM, prophylactic)	IL-12 and IL-18-induced immune privilege collapse of hair follicles ([1]; pre-treatment, 300 nM)	NK cell expansion induced by IL-12 and IL-18 (hair follicle epithelium and mesenchyme) [2]	T cell expansion induced by IL-12 and IL-18 (hair follicle epithelium and mesenchyme) [2]	IL-12+IL-18-induced expression of MHC class I [3, 7]	IL-12+IL-18-induced expression of MHC class II [3, 7]	IFNγ release into the culture medium [4]	elevation of CD3+ T cell frequency [5]	elevation of CD56+ NK cell frequency [5]	IL-12+IL-18-induced expression of MHC class I [3, 8]	IL-12+IL-18-induced expression of MHC class II [3, 8]	restoration of IFNγ secretion to baseline ([4]; therapeutic assay: IL-12+IL-18 first, then compound added)
[2H]C([2H])([2H])NC(=O)c1cnc(NC(=O)C2CC2)cc1Nc1cccc(-c2ncc(F)cn2)c1OC [compound of Formula (II)]	prevented	prevented	greater than the effect observed with tofacitinib	prevented	reversed	reversed	significantly reduced	significantly reduced	inhibiting IFNγ release	prevented	prevented	–	–	–
C[C@@H]1CCN(C(=O)CC#N)C[C@@H]1N(C)c1ncnc2[nH]ccc12 [tofacitinib, reference compound]	–	–	–	–	–	–	–	–	did not decrease	–	–	significantly reduced	significantly reduced	such restoration was not observed
